Source: patent publication US10077273B2, “SHMT inhibitors” (The Trustees of Princeton University, priority 2016, dated 2018)
Where two headings read alike, the source gives them in different places. Blank lines part the entries; values can stand above or below the molecule they belong to.

What was measured:
HCT cells = assay: Formate rescue assay in cell growth; type: cell-based, human; details: Table 2
Protocol: Application of formate is shown to rescue the anti-growth effect in certain human cells treated with SHMT inhibitors in a cell growth assay.
(§1) The described cell lines for Examples 8 and 9 are cultured in 96-well plates in Dulbecco's modified eagle media (DMEM) without pyruvate (CELLGRO) with 10% dialysed fetal bovine serum (Invitrogen) in 5% CO2 at 37° C. Approximately 2,500 cells are plated in each well in 90 uL of media. After 24 hours cells are treated with various concentrations of inhibitor (time=0 hours), with or without formate. Growth was assessed at multiple time points (time=0, 24, 48, 72 hours) through measurement of fluorescence at 595 nm (excitation at 535 nm) on a BioTek micro titer plate reader after incubation with resazurin (0.01 mg/mL for 1.5 hours). IC50 curves are generated from percent inhibition of growth at 72 hours.

[1] = system: human colon carcinoma HCT-116 WT cells; assay: Cell growth assay (resazurin), HCT-116 wild-type; type: cell-based; details: for IC50: Homo sapiens, HCT-116, Table 2
Protocol: as §1, with “hours. […]” for “hours.”

LogP value = type: physicochemical; details: Table 2; head prints (μM)
human SHMT2 = human SHMT2 (Homo sapiens, UniProt P34897)
Sequence of human SHMT2 (P34897 30-504 limits assumed): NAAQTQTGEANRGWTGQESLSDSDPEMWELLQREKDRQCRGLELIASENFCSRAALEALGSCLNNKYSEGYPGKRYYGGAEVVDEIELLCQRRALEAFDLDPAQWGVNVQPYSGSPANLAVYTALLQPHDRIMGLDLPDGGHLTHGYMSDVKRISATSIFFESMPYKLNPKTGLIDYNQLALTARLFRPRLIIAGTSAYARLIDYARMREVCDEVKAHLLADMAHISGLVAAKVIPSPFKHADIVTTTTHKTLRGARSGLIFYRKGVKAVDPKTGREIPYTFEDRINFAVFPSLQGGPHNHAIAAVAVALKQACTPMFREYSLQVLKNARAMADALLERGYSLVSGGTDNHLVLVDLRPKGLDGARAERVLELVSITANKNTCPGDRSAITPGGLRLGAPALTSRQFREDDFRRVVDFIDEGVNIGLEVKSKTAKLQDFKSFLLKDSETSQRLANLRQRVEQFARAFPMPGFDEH
Protocol: (§3) For the SHMT1 and SHMT2 in vitro enzymatic assays, the rate of 5,10-methylene tetrahydrofolate formation catalyzed by SHMT1/2 was indirectly evaluated by coupling with excess MTHFD2, which converts NAD+ to NADH allowing for reaction monitoring by absorption at 340 nm. […] Inhibition of initial reaction velocity was determined by adding various inhibitors at different concentrations and monitored as described. IC50 may be calculated based on this assay.

[2] = system: human pancreatic cell line 8988T; assay: Growth of pancreatic cancer cell line 8988T; type: cell-based; details: 8988T cells
Su-DHL4 cells [3] = assay: Cellular growth, SU-DHL4; type: cell-based; details: SU-DHL4, FIG. 12C legend
Protocol: (§2) Jurkat, REH, Farage, Daudi, Su-DHL2, Su-DHL-4, Su-DHL-6 cells were purchased from ATCC. Cells were subcultured in RPMI supplemented with 10% FBS. For growth assays, cells were seeded at 2×10^5/mL in 5 mL growth media in 12.5 cm flasks. Media was supplemented with sodium formate (1 mM), additional glycine (100 mg/L) and an SHMTi (5 uM). Cells were sampled daily, and counted using trypan blue staining and light microscopy.

Jurkat cells = assay: Cellular growth assay, Jurkat; type: cell-based
Protocol: as §2

Su-DHL4 cells [4] = assay: Apoptosis by Annexin V surface staining, flow cytometry; type: cell-based
Source text: In contrast, cell growth is further decreased in Su-DHL4 cells by addition of formate. This can be further exacerbated by removal of glycine from the media. […] Using flow cytometry, apoptosis of Su-DHL4 cells were studied with AnnexinV surface staining (FIGS. 12D and 12E).

[5] = Liver microsome assay (metabolic stability); type: in vitro ADME; details: male, CD-1, mouse, pooled liver microsomes
Protocol: The following master solution was prepared before compound addition:
Two separate experiments were performed as follows: a) With Cofactors (NADPH and UDPGA): 40 μL of 10 mM NADPH and 40 μL of 20 mM UDPGA were added to the incubations. The final concentrations of microsomes, NADPH and UDPGA were 0.5 mg/mL, 1 mM and 2 mM, respectively. b) Without Cofactors (NADPH and UDPGA): 10 μL of 20 mg/mL liver microsomes and 80 μL of ultra-pure water were added to the incubations. The final concentration of microsomes was 0.5 mg/mL. The mixture was pre-warmed at 37° C. for 5 minutes.
The reaction was started with the addition of 4 μL of 200 μM control compound or test compound solution. Verapamil was used as positive control in this study. The final concentration of test compound or control compound was 2 μM. The incubation solution was incubated in water bath at 37° C. Aliquots of 50 μL were taken from the reaction solution at 0.5, 5, 15, 30, 45 and 60 minutes. The reaction was stopped by the addition of 5 volumes of cold acetonitrile with IS (100 nM alprazolam, 200 nM caffeine and 100 nM tolbutamide). Samples were centrifuged at 3,220 g for 40 minutes. Aliquot of 100 μL of the supernatant was mixed with 100 μL of ultra-pure H2O and then used for LC-MS/MS analysis. The in vitro half-life (in vitro t1/2) was determined from the slope value of the LC-MS signal of the test compound.

HCT-116 ΔSHMT2 cells = assay: Cell growth assay, HCT-116 SHMT2 deletion (knock-out) cells; type: cell-based, human; details: FIG. 3B; increased potency versus native cells
Protocol: Inhibitors of SHMT were evaluated in various cancer cell lines, in the presence and absence of mutations in mitochondrial folate pathway enzymes.
To analyze the effects of inhibition on each isoform independently, SHMT1 and SHMT2 HCT-116 deletion clones were used.

Su-DHL-2 cells = assay: Cellular growth assay, Su-DHL-2; type: cell-based
Protocol: as §2

human SHMT1 = human SHMT1 (Homo sapiens, UniProt P34896); details: read-out: SHMT1 IC50; Table 3
Sequence of human SHMT1 (P34896 2-483 limits assumed): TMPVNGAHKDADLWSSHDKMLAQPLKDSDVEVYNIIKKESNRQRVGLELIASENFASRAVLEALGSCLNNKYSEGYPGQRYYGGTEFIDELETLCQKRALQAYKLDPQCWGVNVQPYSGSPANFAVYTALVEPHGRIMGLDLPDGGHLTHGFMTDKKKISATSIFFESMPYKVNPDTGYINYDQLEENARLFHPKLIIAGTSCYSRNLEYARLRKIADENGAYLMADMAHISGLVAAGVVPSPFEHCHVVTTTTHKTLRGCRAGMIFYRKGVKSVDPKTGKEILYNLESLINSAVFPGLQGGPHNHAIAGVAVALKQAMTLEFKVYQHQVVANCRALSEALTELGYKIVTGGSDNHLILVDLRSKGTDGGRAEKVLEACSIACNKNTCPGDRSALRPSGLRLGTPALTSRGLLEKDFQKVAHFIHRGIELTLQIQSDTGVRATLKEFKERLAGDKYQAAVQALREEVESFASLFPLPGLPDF
Protocol: as §3

[6] = replicate 1, read-out: CLint (replicate 1)
[7] = replicate 2, read-out: CLint (replicate 2)

IC50 [1]: 11.1 µM | logP (LogP value): 4.17
SMILES: COC(=O)CCC#Cc1cc(C(F)(F)F)cc(C2(C(C)C)C(C#N)=C(N)Oc3[nH]nc(C)c32)c1 (stereo not shown) [Compound 73]
% formate rescue (HCT cells): 97.33%

SMILES: Cc1n[nH]c2c1C(c1cc(C#CCCC(=O)O)cc(C(F)(F)F)c1)(C(C)C)C(C#N)=C(N)O2 (stereo not shown) [Compound 4]
% formate rescue (HCT cells): 93.35% | IC50 (human SHMT2; read-out: SCHMT2 IC50, Table 2): 0.00017 µM | IC50 [1]: 15.1 µM

SMILES: Cc1n[nH]c2c1C(c1cc(CO)cc(-c3ccccc3)c1)(C(C)C)C(C#N)=C(N)O2 (stereo not shown) [HK-X2]
concentrations that impair cell growth [2]: < 100 nM | IC70 (Su-DHL4 cells [3]): 5 µM | IC80 (Jurkat cells; FIG. 12C legend): 2.5 µM | apoptotic fraction of cells (Su-DHL4 cells [4]; inhibitor alone, untreated 2%): 8% | apoptotic fraction of cells (Su-DHL4 cells [4]; inhibitor in the presence of formate): 15%

SMILES: Cc1n[nH]c2c1C(c1cc(C#CCCC(=O)NC(C)(C)C(=O)O)cc(C(F)(F)F)c1)(C(C)C)C(C#N)=C(N)O2 (stereo not shown) [Compound 72]
% formate rescue (HCT cells): 98.35% | IC50 [1]: 200 µM | logP (LogP value): 3.38

SMILES: Cc1n[nH]c2c1C(c1cc(C#CCCC(N)=O)cc(C(F)(F)F)c1)(C(C)C)C(C#N)=C(N)O2 (stereo not shown) [Compound 11]
% formate rescue (HCT cells): 96.98% | IC50 [1]: 5.98 µM | microsomal CLint at 2 μM [5, 6]: 764 µL/min/mg | microsomal CLint at 2 μM [5, 7]: 541 µL/min/mg

SMILES: Cc1n[nH]c2c1C(c1cc(C#CCCC(=O)N[C@@H](CCC(=O)O)C(=O)O)cc(C(F)(F)F)c1)(C(C)C)C(C#N)=C(N)O2 (stereo partly shown) [Compound 69]
% formate rescue (HCT cells): 96.41% | IC50 [1]: 100 µM

SMILES: Cc1n[nH]c2c1C(c1cc(C#CCCCO)cc(C(F)(F)F)c1)(C(C)C)C(C#N)=C(N)O2 (stereo not shown) [Compound 61, 6-amino-4-(3-(5-hydroxypent-1-yn-1-yl)-5-(trifluoromethyl)phenyl)-4-isopropyl-3-methyl-1,4-dihydropyrano[2,3-c]pyrazole-5-carbonitrile]
growth of SHMT2 knock-out HCT116 cells (HCT-116 ΔSHMT2 cells): inhibited growth | growth (proliferation) of HCT116 cells ([1]; native HCT116, FIG. 3A): inhibited growth

SMILES: Cc1n[nH]c2c1[C@@](c1cc(C(F)(F)F)cc(C(F)(F)F)c1)(C(C)C)C(C#N)=C(N)O2 [HK-16 (PK-2)]
growth as assessed by cell count (Su-DHL-2 cells; Su-DHL-2, 5 μM): inhibited | rescue of growth inhibition by formate (Su-DHL-2 cells; Su-DHL-2, 5 μM + 1 mM formate): not rescued | growth as assessed by cell count (Jurkat cells; 5 μM): inhibited | rescue of growth inhibition by formate (Jurkat cells; 5 μM + 1 mM sodium formate): significantly rescued

SMILES: Cc1n[nH]c2c1C(c1cc(C#N)cc(C#CCCC(=O)O)c1)(C(C)C)C(C#N)=C(N)O2 (stereo not shown) [Compound 68]
% formate rescue (HCT cells): 106.02% | IC50 [1]: 100 µM

microsomal CLint at 2 μM [5, 6]: 87.8 µL/min/mg | microsomal CLint at 2 μM [5, 7]: 71.5 µL/min/mg
SMILES: Cc1n[nH]c2c1C(c1cc(Br)cc(C(F)(F)F)c1)(C(F)(F)F)C(C#N)=C(N)O2 (stereo not shown)

SMILES: Cc1n[nH]c2c1C(c1cc(C#CCCC(=O)N[C@H](CCC(=O)O)C(=O)O)cc(C(F)(F)F)c1)(C(C)C)C(C#N)=C(N)O2 (stereo partly shown) [Compound 70]
% formate rescue (HCT cells): 94.89% | IC50 [1]: 100 µM | logP (LogP value): 2.49

IC50 [1]: 1.36 µM
SMILES: Cc1n[nH]c2c1C(c1cc(C#CCCCO)cc(C(F)(F)F)c1)(C(C)C)C(C#N)=C(N)O2 (stereo not drawn) [1 (enantiomeric ally active peak)]
% formate rescue (HCT cells): 94.96%

microsomal CLint at 2 μM [5, 6]: 68 µL/min/mg | microsomal CLint at 2 μM [5, 7]: 68 µL/min/mg
SMILES: Cc1n[nH]c2c1C(c1cc(C#CCCCO)cc(CO)c1)(C(C)C)C(C#N)=C(N)O2 (stereo not shown) [Compound 74]

IC50 [1]: 4.96 µM | microsomal CLint at 2 μM [5, 6]: 285 µL/min/mg | microsomal CLint at 2 μM [5, 7]: 203 µL/min/mg
SMILES: Cc1n[nH]c2c1C(c1cc(C#N)cc(C#CCCCO)c1)(C(C)C)C(C#N)=C(N)O2 (stereo not shown) [Compound 71]
% formate rescue (HCT cells): 97.81%

IC50 (human SHMT2; read-out: SHMT2 IC50, Table 3): > 5 µM | IC50 (human SHMT1): > 5 µM
SMILES: COc1cccc(C2(C3CCC3)C(C#N)=C(N)Oc3[nH]nc(C)c32)c1 (stereo not shown) [HK-2]

SMILES: Cc1n[nH]c2c1C(c1cc(C#CCCCN)cc(C(F)(F)F)c1)(C(C)C)C(C#N)=C(N)O2 (stereo not shown) [Compound 8]
% formate rescue (HCT cells): 80.65% | IC50 [1]: 2.04 µM

IC50 (human SHMT2; read-out: SHMT2 IC50, Table 3): > 5 µM
SMILES: Cc1n[nH]c2c1C(C)(c1cccc([N+](=O)[O-])c1)C(C#N)=C(N)O2 (stereo not shown) [GD-07]

IC50 [1]: 6.9 µM | logP (LogP value): 3.46
SMILES: Cc1n[nH]c2c1C(c1cc(C#CCCO)cc(C(F)(F)F)c1)(C(C)C)C(C#N)=C(N)O2 (stereo not shown) [Compound 2]
% formate rescue (HCT cells): 100.58%

microsomal CLint at 2 μM [5, 6]: 597 µL/min/mg | microsomal CLint at 2 μM [5, 7]: 776 µL/min/mg | logP (LogP value): 3.91
SMILES: Cc1n[nH]c2c1C(c1cc(C#CCCCO)cc(C(F)(F)F)c1)(C(C)C)C(C#N)=C(N)O2 (stereo not shown) [Compound 1]
